Reference: patent US5656622A, “15,15-dialkyl-substituted derivatives of estradiol” (Schering Aktiengesellschaft, priority 1993, dated 1997)

Experiments:
estrogen receptor = estrogen receptor binding test; settings: tissue from rat uteri, 3H-estradiol as reference substance
Procedure: The estrogenic effectiveness of the compounds according to the invention can be shown by the results of the estrogen receptor binding test. In this known in vitro test, tissue from rat uteri is prepared and radioactively-labeled ^3 H-estradiol is used as reference substance. The compound according to the invention 15,15-dimethyl-estra-1,3,5(10)-triene-3,17β-diol accordingly has a competition factor K of 1.5.

[1] = tested on: 17β-hydroxysteroid dehydrogenase from human placenta; test: stability against 17β-hydroxysteroid dehydrogenase, incubation with placenta microsomes; format: in vitro ADME; settings: NADP 0.5 mmol
Procedure: To determine the stability of estradiol (A) itself as well as of a compound according to the invention, i.e., 15,15-dimethyl-estra-1,3,5(10)-triene-3,17β-diol (B), against 17β-hydroxysteroid dehydrogenase from human placenta, the test substances are incubated with placenta microsomes in the presence of NADP (nicotinamide-adenine-dinucleotide phosphate; 0.5 mmol).
The steroids (initial substrate and product) are extracted and separated by HPLC. For evaluation, the quotients are formed from the electronically integrated peak areas of the corresponding reaction product (namely the assumed 17-keto compound) and the initial substance and plotted against the incubation time (FIG. 1).

CC1(C)C[C@H](O)[C@@]2(C)CC[C@@H]3c4ccc(O)cc4CC[C@H]3[C@H]12 [15,15-dimethylestra-1,3,5(10)-triene-3,17β-diol]
competition factor K (estrogen receptor): 1.5
conversion to the 17-keto compound by 17β-hydroxysteroid dehydrogenase (quotient of HPLC peak areas product/initial substance against incubation time, FIG. 1) [1]: only moderate substrate
